Experimental data taken from ChEMBL document CHEMBL4477188, “Callyazepin and (3R)-Methylazacyclodecane, Nitrogenous Macrocycles from a Callyspongia sp. Sponge” (J Nat Prod, 2016).

Assays:
K562 = assay: Cytotoxicity against human K562 cells assessed as reduction in cell viability after 72 hrs by MTT assay; assay type: functional, cell-based; settings: K562, 72 h
Bacillus spizizenii = assay: Antimicrobial activity against Bacillus subtilis ATCC 6633 after 24 hrs by serial two fold dilution method; assay type: functional; settings: ATCC 6633, 24 h
Micrococcus luteus = assay: Antimicrobial activity against Micrococcus luteus IFC 12708 after 24 hrs by serial two fold dilution method; assay type: functional; settings: IFC 12708, 24 h
Salmonella typhimurium = assay: Antimicrobial activity against Salmonella typhimurium ATCC 14028 after 24 hrs by serial two fold dilution method; assay type: functional, Salmonella enterica subsp. enterica serovar Typhimurium; settings: Salmonella enterica, ATCC 14028, 24 h
Proteus vulgaris = assay: Antimicrobial activity against Proteus vulgaris ATCC 3851 after 24 hrs by serial two fold dilution method; assay type: functional; settings: ATCC 3851, 24 h
Staphylococcus aureus = assay: Antimicrobial activity against Staphylococcus aureus ATCC 6538P after 24 hrs by serial two fold dilution method; assay type: functional
Escherichia coli = assay: Antimicrobial activity against Escherichia coli ATCC 25922 after 24 hrs by serial two fold dilution method; assay type: functional; settings: ATCC 25922, 24 h
A549 = assay: Cytotoxicity against human A549 cells assessed as reduction in cell viability after 72 hrs by MTT assay; assay type: functional, cell-based; settings: A549, 72 h

Row | Compound | IC50 (K562) [µM] | MIC (Bacillus spizizenii) [µM] | MIC (Micrococcus luteus) [µM] | MIC (Salmonella typhimurium) [µM] | MIC (Proteus vulgaris) [µM] | MIC (Staphylococcus aureus) [µM] | MIC (Escherichia coli) [µM] | IC50 (A549) [µM]
1 | C[C@@H]1CCCCCCCNC1 | 3.2 | ≥ 128 | ≥ 128 | ≥ 128 | ≥ 128 | ≥ 128 | ≥ 128 | 3.8
2 | COC(=O)[C@H](C)[N@@+]1(C=O)CC[C@H]2CCCCCCCCCC[C@H]2[C@@H](C)C1 | 7.4 | ≥ 128 | ≥ 128 | ≥ 128 | ≥ 128 | ≥ 128 | ≥ 128 | 3
3 | COc1cccc2c1C(=O)c1c(O)c3c(c(O)c1C2=O)C[C@@](O)(C(=O)CO)C[C@@H]3O[C@H]1C[C@H](N)[C@H](O)[C@H](C)O1 [DOXORUBICIN] | 0.8 | – | – | – | – | – | – | 0.5
